The values that follow are results of earlier work, collected in patent publication US20060030591A1 (Wyeth, priority 2004, published 2006).

Each structure is given as a SMILES string.

The test system of one series is uterus. The conditions noted are these: qualitative.
The test system of series [1] is tamoxifen-sensitive cells lines. To be noted: other studies, qualitative.
Series [2] concerns tamoxifen-resistent MCF-7 breast cancer xenografts. To be noted: recent preclinical studies, qualitative.

Regarding `Cc1c(-c2ccc(O)cc2)n(Cc2ccc(OCCN3CCCCC3)cc2)c2ccc(O)cc12.Cl` [pipindoxifene, 2-(4-hydroxyphenyl)-3-methyl-1-[4-(2-piperidin-1-yl-ethoxy)-benzyl]-1H-indol-5-ol hydrochloride], the “effect in the uterus” value in the series with uterus (Greenberger, et al., Clin. Cancer Res. (2001)) is recorded as “antiestrogenic in the uterus”. In addition, the uterotropic activity result in the series on uterus (tissue selective estrogenic effects) is recorded as “little or no uterotropic activity”. Further, the “effectiveness in tamoxifen-sensitive cells lines” value in series [1] was “show effectiveness”. Moreover, the “growth of tamoxifen-resistent MCF-7 breast cancer xenografts” value in series [2] is reported as “inhibited the growth”.
